The assay concerns P388 leukemia ip, CD2F1 mice, survival T/C. Put plainly: NCI In Vivo Anticancer Drug Screen. Data for tumor model P388 Leukemia (intraperitoneal) in CD2F1 (CDF1) mice. Conditions: endpoint: median survival time, higher = longer survival. In outline:
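Mice carrying the transplanted tumor received test compound or vehicle. Survival was recorded in each group, and the value is the treated-group measurement divided by that of the vehicle-treated control group.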

Setting [1] is: dose: 100.0 mg/kg/injection, schedule: Q01DX001 (ip), vehicle: saline with Tween-80.
The mark [2] stands for this setting: dose: 200.0 mg/kg/injection, schedule: Q01DX001 (ip), vehicle: saline with Tween-80.
[3] abbreviates: dose: 400.0 mg/kg/injection, schedule: Q01DX001 (ip), vehicle: saline with Tween-80.
The mark [4] stands for this setting: dose: 50.0 mg/kg/injection, schedule: Q01DX005 (ip), vehicle: Klucel (hydroxypropylcellulose) (HPC).
[5] abbreviates: dose: 100.0 mg/kg/injection, schedule: Q01DX005 (ip), vehicle: Klucel (hydroxypropylcellulose) (HPC).
Where [6] appears, read: dose: 200.0 mg/kg/injection, schedule: Q01DX005 (ip), vehicle: Klucel (hydroxypropylcellulose) (HPC).

Toxic doses and inconclusive results are not listed.

As to `COc1ccc(C(O)c2ncccc2C)cc1OC` (stereo not drawn), the T/C is 102 % of control (dose: 12.5 mg/kg/injection, schedule: Q01DX009 (ip), vehicle: water); 94 % of control (dose: 25.0 mg/kg/injection, schedule: Q01DX009 (ip), vehicle: water); 99 % of control (dose: 50.0 mg/kg/injection, schedule: Q01DX009 (ip), vehicle: water); 100 % of control (dose: 100.0 mg/kg/injection, schedule: Q01DX009 (ip), vehicle: water); 101 % of control (dose: 200.0 mg/kg/injection, schedule: Q01DX009 (ip), vehicle: water).
Regarding `CN(C)C1C(O)C2Oc3c(cc(O)c4c3C(=O)c3cc5c(c(O)c3C4=O)C(OCC3COC(C)(C)O3)CC(C)(O)C5)C(C)(O2)C1O` (stereo not drawn), the T/C was 105 % of control (dose: 2.0 mg/kg/injection, schedule: Q01DX009 (ip), vehicle: other); 117 % of control (dose: 4.0 mg/kg/injection, schedule: Q01DX009 (ip), vehicle: other); 123 % of control (dose: 8.0 mg/kg/injection, schedule: Q01DX009 (ip), vehicle: other); 123 % of control (dose: 16.0 mg/kg/injection, schedule: Q01DX009 (ip), vehicle: other).
Take `CCN(CC)Cc1c(C)[nH]c2cc(N(C)C)ccc2c1=O`: the T/C by setting is: (dose: 50.0 mg/kg/injection, schedule: Q01DX009 (ip), vehicle: Klucel (hydroxypropylcellulose) (HPC)) 96 % of control; (dose: 100.0 mg/kg/injection, schedule: Q01DX009 (ip), vehicle: Klucel (hydroxypropylcellulose) (HPC)) 97 % of control.
As for `O=C1CN2CCN3CC(=O)NC(=O)[C@H]3[C@H]2C(=O)N1`, the T/C (dose: 60.0 mg/kg/injection, schedule: Q01DX005 (ip), vehicle: saline with Tween-80) is 101 % of control; the T/C (dose: 120.0 mg/kg/injection, schedule: Q01DX005 (ip), vehicle: saline with Tween-80) was 101 % of control; the T/C (dose: 240.0 mg/kg/injection, schedule: Q01DX005 (ip), vehicle: saline with Tween-80) was 93 % of control.
For the compound `CCC(C(=O)O)C1(C(=O)O)CCCCCC1` (stereo not drawn), the T/C reads like this: under setting [1], 101 % of control; (dose: 100.0 mg/kg/injection, schedule: Q04DX002 (ip), vehicle: saline with Tween-80) 98 % of control; under setting [2], 106 % of control; (dose: 200.0 mg/kg/injection, schedule: Q04DX002 (ip), vehicle: saline with Tween-80) 98 % of control; under setting [3], 108 % of control; (dose: 400.0 mg/kg/injection, schedule: Q04DX002 (ip), vehicle: saline with Tween-80) 109 % of control.
As for `COc1cccc(/C=N/NC(=O)c2ccccc2N2CCCC2)c1O`, the T/C is 93 % of control (dose: 12.5 mg/kg/injection, schedule: Q01DX009 (ip), vehicle: olive oil, sesame oil, peanut oil); 97 % of control (dose: 25.0 mg/kg/injection, schedule: Q01DX009 (ip), vehicle: olive oil, sesame oil, peanut oil); 97 % of control (dose: 50.0 mg/kg/injection, schedule: Q01DX009 (ip), vehicle: olive oil, sesame oil, peanut oil); 96 % of control (dose: 100.0 mg/kg/injection, schedule: Q01DX009 (ip), vehicle: olive oil, sesame oil, peanut oil); 94 % of control (dose: 200.0 mg/kg/injection, schedule: Q01DX009 (ip), vehicle: olive oil, sesame oil, peanut oil).
As to `CC(Br)C(=O)NC(Cc1ccccc1)C(=O)O` (stereo not drawn), the T/C reads like this: (dose: 100.0 mg/kg/injection, schedule: Q01DX009 (ip), vehicle: saline) 99 % of control; (dose: 200.0 mg/kg/injection, schedule: Q01DX009 (ip), vehicle: saline) 103 % of control; (dose: 400.0 mg/kg/injection, schedule: Q01DX009 (ip), vehicle: saline) 89 % of control.
For the compound `COc1cccc(S(=O)c2ccc([N+](=O)[O-])c3no[n+]([O-])c23)c1` (stereo not drawn), the T/C (dose: 3.75 mg/kg/injection, schedule: Q01DX009 (ip), vehicle: saline with Tween-80) was 95 % of control; the T/C (dose: 7.5 mg/kg/injection, schedule: Q01DX009 (ip), vehicle: saline with Tween-80) was 104 % of control; the T/C (dose: 15.0 mg/kg/injection, schedule: Q01DX009 (ip), vehicle: saline with Tween-80) was 112 % of control.
With `COc1ccc(C=C2C(=O)N(c3ccccc3)C(=S)N(c3ccccc3)C2=O)cc1`, the T/C by setting is: under setting [4], 94 % of control; under setting [5], 90 % of control; under setting [6], 88 % of control.
`COc1cc(O)c2c(c1N)C(=O)c1ccccc1C2=O`: the T/C under setting [4] is 105 % of control, the T/C under setting [5] is 106 % of control and the T/C under setting [6] is 101 % of control.
Consider `CC(=O)[C@@H]1C[C@H]1C(=O)c1ccccc1`, for which the T/C (dose: 67.5 mg/kg/injection, schedule: Q04DX002 (ip), vehicle: Klucel (hydroxypropylcellulose) (HPC)) is 96 % of control; the T/C (dose: 135.0 mg/kg/injection, schedule: Q04DX002 (ip), vehicle: Klucel (hydroxypropylcellulose) (HPC)) was 94 % of control; the T/C (dose: 270.0 mg/kg/injection, schedule: Q04DX002 (ip), vehicle: Klucel (hydroxypropylcellulose) (HPC)) is 96 % of control.
`COc1ccc(/C=C/C(=O)C(CN(C)C)CN(C)C)cc1`: the T/C runs as follows: (dose: 1.56 mg/kg/injection, schedule: Q01DX005 (ip), vehicle: saline) 109 % of control; (dose: 3.12 mg/kg/injection, schedule: Q01DX005 (ip), vehicle: saline) 96 % of control; (dose: 6.25 mg/kg/injection, schedule: Q01DX005 (ip), vehicle: saline) 106 % of control.
Turning to `COc1cccc2c1SCC/C2=N\OCC(O)CNC1CCCCC1` (stereo not drawn), the T/C was 94 % of control (dose: 100.0 mg/kg/injection, schedule: Q04DX002 (ip), vehicle: Klucel (hydroxypropylcellulose) (HPC)) and 94 % of control (dose: 200.0 mg/kg/injection, schedule: Q04DX002 (ip), vehicle: Klucel (hydroxypropylcellulose) (HPC)).
On to `COc1nc2c(ccn2C2OC(COC(C)=O)C(OC(C)=O)C(OC(C)=O)C2OC(C)=O)c(=O)[nH]1` (stereo not drawn), for which the T/C by setting is: under setting [1], 104 % of control; under setting [2], 100 % of control; under setting [3], 100 % of control.
Regarding `CC(O)C(C)C(N)C(=O)O` (stereo not drawn), the T/C is, setting by setting: (dose: 8.25 mg/kg/injection, schedule: Q01DX005 (ip), vehicle: water) 100 % of control; (dose: 16.5 mg/kg/injection, schedule: Q01DX005 (ip), vehicle: water) 98 % of control; (dose: 33.0 mg/kg/injection, schedule: Q01DX005 (ip), vehicle: water) 100 % of control; (dose: 66.0 mg/kg/injection, schedule: Q01DX005 (ip), vehicle: water) 99 % of control.
As for `[Cl][Pt]([Cl])([Cl])[Cl]`, the T/C reads like this: (dose: 12.5 mg/kg/injection, schedule: Q01DX009 (ip), vehicle: saline) 123 % of control; (dose: 25.0 mg/kg/injection, schedule: Q01DX009 (ip), vehicle: saline) 111 % of control.
In the case of `Cc1ccc2c(NCCCCCCCCNc3c4ccccc4nc4c(C)c(C)ccc34)c3ccccc3nc2c1C`, for the setting “dose: 10.0 mg/kg/injection, schedule: Q01DX009 (ip), vehicle: other”, the T/C is 156 % of control.
Consider `COc1cc(C(=O)NN=C(C)C)cc(OC)c1OC`, for which the T/C by setting is: under setting [4], 101 % of control; under setting [5], 104 % of control; under setting [6], 101 % of control.
As for `N#CCc1[nH]nc2ncnc(N)c12`, the T/C was 102 % of control (dose: 6.25 mg/kg/injection, schedule: Q01DX009 (ip), vehicle: other); 103 % of control (dose: 12.5 mg/kg/injection, schedule: Q01DX009 (ip), vehicle: other); 97 % of control (dose: 25.0 mg/kg/injection, schedule: Q01DX009 (ip), vehicle: other); 97 % of control (dose: 50.0 mg/kg/injection, schedule: Q01DX009 (ip), vehicle: other); 105 % of control (dose: 100.0 mg/kg/injection, schedule: Q01DX009 (ip), vehicle: other).
